Experimental data from US4950647A, “T cell immunopotentiator” (Nucleic Acid Research Institute, priority 1988, dated 1990).
“Also recorded” adds a separate entry of the source.

Legend:
Format in all cases: cell-based
[1] = system: human lymphocytes (peripheral blood mononuclear cells); assay: Mitogenic activity (3H-thymidine incorporation)
Method: (§1) Peripheral blood mononuclear cells were isolated from heparinized peripheral blood of normal healthy donors as described in Sharma, B. and S. Gupta, "Antigen-specific primary cytotoxic T lymphocyte response in acquired immune deficiency syndrome (AIDS) and AIDS related complex", Clin. Exp. Immunol., 62:296, 1985. Briefly, blood was diluted 1:1 with Hanks balanced salt solution (HBSS). Peripheral blood mononuclear cells were separated on a Ficoll-Hypaque gradient. The peripheral blood mononuclear cells recovered from the interface were washed three times with HBSS and resuspended in RPMI-1640 containing 100 U/ml penicillin, 100 μg/ml streptomycin 2mM L-glutamine (GIBCO, Grand Island, N.Y.), and 10% heat-inactivated pooled A serum (Irvine Scientific, Irvine, Calif.), hereafter referred as complete medium (CM).
The ability of 6-amino-(2-deoxy-α-D-erythro-pentofuranosyl)-imidazo[4,5,-C]pyridin- 4-one to activate lymphocytes was determined by culturing the cells with and without this compound. Peripheral blood mononuclear cells (1×10^5 /0.2 ml) were cultures in 96 well microtiter plates (Corning, N.Y.) for 72-96 hrs at 37° C. in 5% CO2 humid atmosphere and then for an additional 16 hr in the presence of 1 μCi/well [^3 H] thymidine (ICN Pharmaceuticals, Inc., Irvine, Calif.). Cells were harvested on glass fiber filter paper using a cell harvester (Skatron, Lier, Norway). The radioactivity was measured in a scintillation counter after suspending the dried filter in scintillation fluid.
To determine whether 6-amino-(2-deoxy-α-D-erythro-pentofuranosyl)-imidazo[4,5,-C]pyridin- 4-one directly activates lymphocytes to proliferate, peripheral blood mononuclear cells were cultured with or without this compound as described in the above methods section.

[2] = system: human lymphocytes (peripheral blood mononuclear cells); assay: Phytohemagglutinin (PHA) induced lymphocyte proliferation
Method: as §1
The ability of the compound 6-amino-(2-deoxy-α-D-erythropentofuranosyl)-imidazo[4,5,-C]pyridin-4-one to modulate lymphocyte response to plant mitogens was determined by the modified procedure of Sharma, B., O. Kohashi, M. R. Mickey, and P. T. Terasaki, "Effect of water soluble adjuvants on in vitro lymphocyte immunization", Cancer Res. 35:666, 1975. Peripheral blood mononuclear cells were cultured for 72-96 hr with phytohemagglutinin (Difco, Detroit, Mich.), Concanavalin A (Calbiochem, Calif.) or Pokeweed mitogen (GIBCO, Grand Island, N.Y.) in the presence and absence of 6-amino-(2-deoxy-α-D-erythro-pentofuranosyl)-imidazo[4,5,-C]pyridin- 4-one. The culture were set up in quadruplicate and pulsed with [^3 H]-thymidine for 16 hr and the [^3 H] thymidine incorporation was determined.
Lymphocytes from different donors where incubated with various concentration of phytohemagglutinin in absence and presence of 6-amino-(2-deoxy-α-D-erythro-pentofuranoxyl)imidazo-[4,5,-C]pyridin- 4-one.
[…] Lymphocyte proliferation was determined by ^3 H-thymidine incorporation.

[3] = system: B cells (human peripheral blood mononuclear cells); assay: Staphylococcus aureus cowan (SAC) induced B cell proliferation; set-up: 3H-thymidine incorporation: unit not given here
Method: as §1
Peripheral blood mononuclear cells (1×10^5 /0.2 ml/well) were incubated with different concentrations of Staphylococcus aureus cowan (1:[…] and 1:10,000 dilutions) in the presence and absence of 6-amino-(2-deoxy-α-D-erythro-pentofuranosyl)-imidazo[4,5,-C]pyridin- 4-one for 4 days. The cultures were pulsed with [^3 H]-thymidine and then the incorporation of [^3 H]thymidine was measured.
To further evaluate the effect on B cell response, human peripheral blood mononuclear cells were cultured with Staphylococcus aureus cowan in the presence and absence of 6-amino-(2-deoxy-α-D-erythro-pentofuranosyl)-imidazo[4,5,-C]pyridin- 4-one.

[4] = donor 2, PHA 0.25 mg/0.2 ml, compound (0.1)
[5] = donor 2, PHA 1.0 mg/0.2 ml, compound (0.05)
[6] = donor 2, PHA 4.0 mg/0.2 ml, compound (0.038)
[7] = donor 3, PHA 0.25 mg/0.2 ml, compound (0.4)
[8] = donor 3, PHA 1.0 mg/0.2 ml, compound (0.2)
[9] = donor 3, PHA 1.0 mg/0.2 ml, compound (0.4)
[10] = donor 3, PHA 4.0 mg/0.2 ml, compound (0.2)
[11] = donor 3, PHA 4.0 mg/0.2 ml, compound (0.4)
[12] = donor 4, PHA 0.25 mg/0.2 ml, compound (0.4)
[13] = donor 4, PHA 1.0 mg/0.2 ml, compound (0.05)
[14] = donor 4, PHA 1.0 mg/0.2 ml, compound (0.4)
[15] = donor 4, PHA 4.0 mg/0.2 ml, compound (0.4)
[16] = donor 5, PHA 0.5 mg/0.2 ml, compound (0.05)
[17] = donor 5, PHA 1.0 mg/0.2 ml, compound (0.2)
[18] = donor 5, PHA 4.0 mg/0.2 ml, compound (0.2)
[19] = donor 6, PHA 0.5 mg/0.2 ml, compound (0.05)
[20] = donor 7, PHA 0.125 mg/0.2 ml, compound (0.4)
[21] = donor 7, PHA 0.125 mg/0.2 ml, compound (1.0)

Nc1cc2c(ncn2[C@@H]2C[C@H](O)[C@@H](CO)O2)c(O)n1 [Test Compound, 6-amino-1-(2-deoxy-α-D-erythro-pentofuranosyl)imidazo[4,5-C]-pyridin-4-one]
increase in the proliferation of peripheral blood mononuclear cells ([1]; 0.006 mM to 0.4 mM, several donors): no significant increase | stimulation of lymphocytes to proliferate ([1]; 1 mM): failed to stimulate lymphocytes to proliferate | direct stimulation of lymphocytes to proliferate ([1]; by itself): unable to directly stimulate lymphocytes to proliferate | 3H-thymidine incorporation ([1]; donor 1, 0.006 mM): 212 ± 96 Counts per minute | 3H-thymidine incorporation ([1]; donor 1, 0.025 mM): 494 ± 267 Counts per minute | 3H-thymidine incorporation ([1]; donor 1, 0.050 mM): 306 ± 106 Counts per minute | 3H-thymidine incorporation ([1]; donor 1, 0.2 mM): 246 ± 99 Counts per minute | 3H-thymidine incorporation ([1]; donor 1, 0.4 mM): 320 ± 46 Counts per minute | 3H-thymidine incorporation ([1]; donor 2, 0.006 mM): 262 ± 68 Counts per minute | 3H-thymidine incorporation ([1]; donor 2, 0.025 mM): 273 ± 122 Counts per minute | 3H-thymidine incorporation ([1]; donor 2, 0.050 mM): 257 ± 67 Counts per minute | 3H-thymidine incorporation ([1]; donor 3, 0.006 mM): 266 ± 42 Counts per minute | 3H-thymidine incorporation ([1]; donor 3, 0.025 mM): 252 ± 112 Counts per minute | 3H-thymidine incorporation ([1]; donor 3, 0.050 mM): 180 ± 37 Counts per minute | 3H-thymidine incorporation ([1]; donor 4, 0.006 mM): 246 ± 61 Counts per minute | 3H-thymidine incorporation ([1]; donor 4, 0.025 mM): 237 ± 55 Counts per minute | 3H-thymidine incorporation ([1]; donor 4, 0.050 mM): 240 ± 35 Counts per minute | 3H-thymidine incorporation ([1]; donor 5, 0.006 mM): 238 ± 63 Counts per minute | 3H-thymidine incorporation ([1]; donor 5, 0.025 mM): 121 ± 55 Counts per minute | 3H-thymidine incorporation ([1]; donor 5, 0.050 mM): 841 ± 310 Counts per minute | 3H-thymidine incorporation ([1]; donor 5, 0.2 mM): 277 ± 51 Counts per minute | 3H-thymidine incorporation ([1]; donor 5, 0.4 mM): 165 ± 64 Counts per minute | 3H-thymidine incorporation ([1]; donor 6, 0.006 mM): 486 ± 51 Counts per minute | 3H-thymidine incorporation ([1]; donor 6, 0.025 mM): 508 ± 140 Counts per minute | 3H-thymidine incorporation ([1]; donor 6, 0.050 mM): 650 ± 130 Counts per minute | 3H-thymidine incorporation ([1]; donor 6, 0.2 mM): 620 ± 322 Counts per minute | 3H-thymidine incorporation ([1]; donor 6, 0.4 mM): 395 ± 22 Counts per minute | 3H-thymidine incorporation ([1]; donor 7, 0.006 mM): 1133 ± 257 Counts per minute | 3H-thymidine incorporation ([1]; donor 7, 0.025 mM): 1667 ± 254 Counts per minute | 3H-thymidine incorporation ([1]; donor 7, 0.050 mM): 772 ± 137 Counts per minute | 3H-thymidine incorporation ([1]; donor 7, 0.2 mM): 657 ± 137 Counts per minute | 3H-thymidine incorporation ([1]; donor 7, 0.4 mM): 702 ± 189 Counts per minute | activity in augmenting phytohemagglutinin response compared with interleukin-2 ([2]; Table III): equals that of interleukin-2 | potentiation of lymphocyte response to phytohemagglutinin ([2]; all the 5 donors examined): striking potentiation | 3H-thymidine incorporation in PHA-stimulated cultures [2, 4]: 56362 ± 8650 Counts per minute | % Potentiation [2, 4]: 294% | 3H-thymidine incorporation in PHA-stimulated cultures [2, 5]: 110155 ± 5101 Counts per minute | % Potentiation [2, 5]: 41% | 3H-thymidine incorporation in PHA-stimulated cultures [2, 6]: 127102 ± 3001 Counts per minute | % Potentiation [2, 6]: 53% | 3H-thymidine incorporation in PHA-stimulated cultures [2, 7]: 34646 ± 6344 Counts per minute | % Potentiation [2, 7]: 1074% | 3H-thymidine incorporation in PHA-stimulated cultures [2, 8]: 77757 ± 18381 Counts per minute | % Potentiation [2, 8]: 295% | 3H-thymidine incorporation in PHA-stimulated cultures [2, 9]: 61653 ± 12029 Counts per minute | % Potentiation [2, 9]: 213% | 3H-thymidine incorporation in PHA-stimulated cultures [2, 10]: 88518 ± 7387 Counts per minute | % Potentiation [2, 10]: 144% | 3H-thymidine incorporation in PHA-stimulated cultures [2, 11]: 97950 ± 6240 Counts per minute | % Potentiation [2, 11]: 170% | 3H-thymidine incorporation in PHA-stimulated cultures [2, 12]: 28765 ± 4475 Counts per minute | % Potentiation [2, 12]: 1171% | 3H-thymidine incorporation in PHA-stimulated cultures [2, 13]: 50131 ± 4674 Counts per minute | % Potentiation [2, 13]: 88% | 3H-thymidine incorporation in PHA-stimulated cultures [2, 14]: 91669 ± 7462 Counts per minute | % Potentiation [2, 14]: 244% | 3H-thymidine incorporation in PHA-stimulated cultures [2, 15]: 119811 ± 2608 Counts per minute | % Potentiation [2, 15]: 91% | 3H-thymidine incorporation in PHA-stimulated cultures [2, 16]: 66109 ± 2263 Counts per minute | % Potentiation [2, 16]: 71% | 3H-thymidine incorporation in PHA-stimulated cultures [2, 17]: 79690 ± 3113 Counts per minute | % Potentiation [2, 17]: 79% | 3H-thymidine incorporation in PHA-stimulated cultures [2, 18]: 93966 ± 6505 Counts per minute | % Potentiation [2, 18]: 103% | 3H-thymidine incorporation in PHA-stimulated cultures [2, 19]: 16156 ± 3600 Counts per minute | % Potentiation [2, 19]: 110% | 3H-thymidine incorporation in PHA-stimulated cultures [2, 20]: 25657 ± 2488 Counts per minute | % Potentiation [2, 20]: 353% | 3H-thymidine incorporation in PHA-stimulated cultures [2, 21]: 23582 ± 3903 Counts per minute | % Potentiation [2, 21]: 317% | suppression of SAC induced B cell proliferation [3]: slight suppression of B cell proliferation in some cases | 3H-thymidine incorporation ([3]; SAC 1:100, 0.0125 mM): 31582 ± 5535 | 3H-thymidine incorporation ([3]; SAC 1:100, 0.025 mM): 30876 ± 1757 | 3H-thymidine incorporation ([3]; SAC 1:100, 0.05 mM): 31036 ± 2225 | 3H-thymidine incorporation ([3]; SAC 1:100, 0.6 mM): 31549 ± 1496 | 3H-thymidine incorporation ([3]; SAC 1:1000, 0.0125 mM): 18079 ± 829 | 3H-thymidine incorporation ([3]; SAC 1:1000, 0.025 mM): 18897 ± 1334 | 3H-thymidine incorporation ([3]; SAC 1:1000, 0.05 mM): 17240 ± 1634 | 3H-thymidine incorporation ([3]; SAC 1:1000, 0.2 mM): 16618 ± 2378 | augmenting effect on SAC induced B cell proliferation ([3]; listed as 6-Amino-(2-deoxy-α-D-erythro-pentofuranosyl)-imidazo[4,5,-C]pyridin-4-one): neither an effect on Staphylococcus aureus cowan induced B cell proliferation; also recorded: no augmenting effect
